Experiment: Human HepG2 cell viability assay in 384 well format
Type: toxicity, cell-based
Design: dose 125 nL, time 70.5 hour; cytotoxicity at 70.5 h: concentration not given beside the values
Details: HepG2 cells, read-out: Inhibition

| Structure (SMILES) | cytotoxicity at 70.5 h [%] |
| --- | --- |
| O=C(Nc1ccccc1C(=O)NCCN1CCOCC1)c1ccco1 | 24.9 |
| Cc1nnsc1CNC(=O)CSCc1ccccc1Cl | -7.02 |
| CN1CC2(CCN(Cc3cc(Cl)ccc3OCC(=O)O)CC2)OC1=O | -8.9 |
| Cc1c(Cl)cc(C(=O)N(CCO)Cc2nccn2C)cc1Cl | -0.75 |
| CC1(C)Cc2c(cnn2-c2ccccc2)C(NC2CCSCC2)C1 (configuration not stated) | -5.66 |
| Cc1nccc(-c2ccccc2)c1C(=O)N1CCC2(CCCO2)CC1 | 2.47 |
| Cc1cc(C)cc(CCC(=O)N2CCN(c3cc(C)nc(N)n3)CC2)c1 | 6.95 |
| CC(C)(C)c1ccn(C2(C(=O)O)CCN(c3ncccc3C#N)CC2)n1 | -2.37 |
| COCCN(Cc1ccncc1)C(=O)C1COc2ccccc2C1 (configuration not stated) | -6.32 |
| CC(=O)N[C@@H]1CN(C(=O)c2cc3sccc3[nH]2)C[C@H]1c1ccc(C)o1 | -3.33 |
| Cc1cnccc1Cn1ccnc1C1CCOC1 (configuration not stated) | -7.66 |
| COCCN(C)[C@@H]1c2ccccc2C2(CCNCC2)[C@H]1O | -4.67 |
| CCc1n[nH]c(C(=O)NCCn2ccnc2C)c1C | -5.75 |
| c1ccc(C2CN(C3CC3)CC3(CCN(Cc4ncc[nH]4)CC3)C2)cc1 (configuration not stated) | -6.48 |
| CC1(C)CNC(=O)c2nc(CCN3CCCCC3CO)[nH]c2C1 (configuration not stated) | 4.33 |
| COc1ccc(CN2CCC=C(C(C)NC(C)=O)C2)cc1 (configuration not stated) | -10.1 |
| COCCCC1CCCCN1Cc1cc(F)ccc1-n1cccn1 (configuration not stated) | 9.72 |
| Cc1nc(CN2CC(=O)N(C)c3ccccc3C2=O)no1 | -1.75 |
| CC(=O)N1C[C@H](NS(=O)(=O)N2CCOCC2)[C@@H](c2ccc(C)o2)C1 | -7.85 |
| COc1ccc(CN(Cc2ccsc2)CC2CCCO2)cn1 (configuration not stated) | -2.5 |
| COc1ccccc1OC1CN(C(=O)C(c2ccc(F)cc2)N(C)C)C1 (configuration not stated) | -1.1 |
| NCC1CN(c2nc(-c3cccnc3)nc3c2CCNCC3)CCO1 (configuration not stated) | 26.4 |
| NC(=O)NCC(=O)N1CCC(c2cc(-c3ccccc3Cl)n[nH]2)CC1 | -4.95 |

| Structure (SMILES) | cytotoxicity at 70.5 h [%] |
| --- | --- |
| CSCCNC(=O)c1coc(COc2ccc3sc(C)nc3c2)n1 | -13.9 |
| c1ccc2c(c1)ccn2CCCNC1CCOC2(CCOCC2)C1 (configuration not stated) | 32.9 |
| COCCCN1C(=O)CC[C@H]2CN(Cc3ncc[nH]3)CC[C@H]21 | 8.43 |
| Cn1cc(C(=O)N2CC[C@@]3(O)CCN(C(=O)C4CCC4)C[C@H]3C2)cn1 | 3.54 |
| CC(C)c1noc(-c2ccc(NCCCC3CCOC3)nc2)n1 (configuration not stated) | -0.0541 |
| Cc1cc(N2CCC(n3cc(CN4CCC[C@@H]4CO)nn3)CC2)ccn1 | -8.62 |
| Cn1ccnc1CN1CCC(Cn2cc(-c3ccncc3)nn2)CC1 | 3.24 |
| O=C(NC1CCCCC1)[C@H]1CNC[C@@H](COc2cccnc2)C1 | -3.95 |
| Cc1ccc(-c2cc(CNc3ncnc4c3CCNCC4)no2)cc1 | 1.89 |
| CSc1ccccc1CCC1CCS(=O)(=O)C1 (configuration not stated) | -1.45 |
| O=C(c1ccc(Cl)cc1F)N1CCC(Cn2cc(CO)nn2)CC1 | -5.57 |
| O=C(CCn1ccc2ncccc2c1=O)N1CCCC1 | 0.26 |
| COc1c(F)cccc1C(=O)N(C)Cc1nc(-c2ccccn2)no1 | -6.48 |
| O=C1CCC2(CCCN(CCn3cc(Cl)cn3)C2)CN1C1CCCC1 (configuration not stated) | -19.7 |
| CCN(Cc1ccncc1)C1CCCN(Cc2ccc(F)cc2OC)C1 (configuration not stated) | -1.99 |
| Cc1nc(CNC2CC(=O)N(CCc3cccc(Cl)c3)C2)c[nH]1 (configuration not stated) | -5.42 |
| CCn1c(CC2CCN(C(=O)c3cc(CC(C)C)on3)CC2)n[nH]c1=O | -2.52 |
| CC(=O)N1CCCN(C(C(=O)O)c2ccc(C)cc2C)CC1 (configuration not stated) | -10.9 |
| Cc1cc(C(=O)NCCCn2nccc2C2CC2)c(=O)[nH]c1C | -14.7 |
| CCCOCCn1ncc(N2CCc3ccccc3C2)cc1=O | -1.9 |
| COc1ccc(C(=O)N2CCC(Oc3ccc(C)cc3)(C(=O)O)CC2)o1 | 0.709 |
| CC(c1cccc(-c2ncccc2C#N)c1)N(C)C (configuration not stated) | -15.1 |
| O=C(CCC1CCN(C2Cc3ccccc3C2)CC1)NCC1CCCO1 (configuration not stated) | 25.6 |

| Structure (SMILES) | cytotoxicity at 70.5 h [%] |
| --- | --- |
| Cc1cnc(C)c(N2CCC(Cc3ccccc3Cl)(C(=O)O)CC2)n1 | -8.45 |
| CCn1cc(C(=O)NCCN2CCCc3ccccc32)c(C)n1 | -0.0816 |
| CNc1cc(C(=O)NCCC2=CSC3=NCCCN23)ccn1 | 1.26 |
| CC(C)c1nc(CN(C)C(=O)c2ccc3c(c2)OCO3)cs1 | -9.84 |
| CCNC(=O)[C@@H]1C[C@H](NC(=O)c2cc(CC)n[nH]2)CN1Cc1ccsc1 | -6.78 |
| Cc1cc(C)n(CCN(C)c2ccc(-c3nc(C4CC4)no3)cn2)n1 | 10.5 |
| Clc1ccccc1CCn1ccnc1-c1cn(C2CCNCC2)nn1 | -8.18 |
| Cc1ccc2c(c1)SCC(=O)N2Cc1noc(C2CC2)n1 | 16.3 |
| CNC(=O)C1CCCN1c1nc(C)c2ccccc2n1 (configuration not stated) | -16.3 |
| Cc1ccc(C(=O)N2CCCC(Nc3ccc(F)cc3)C2)cc1 (configuration not stated) | -1.63 |
| CN(CCn1ccc2ccccc21)C(=O)CS(C)(=O)=O | 18 |
| COCC[C@]1(O)CCN(Cc2nnc(C)s2)C[C@H]1C | -9.14 |
| CN(C)C(=O)N1CCN(Cc2ccc3occc3c2)[C@H]2CS(=O)(=O)C[C@H]21 | -3.65 |
| O=C(c1ccc(S(=O)(=O)N2CCSCC2)cc1)N1CCC(O)C1 (configuration not stated) | -17.3 |
| Cc1nnc(CNC(=O)CC2CCc3ccccc32)o1 (configuration not stated) | 25.8 |
| Cc1nc2c(c(NC3CCN(Cc4ccccc4)CC3)n1)CCNCC2 | 0.337 |
| Cc1ncccc1OC1(C(=O)NCc2noc(C(C)C)n2)CCNCC1 | -5.62 |
| CCCNC(=O)N1CCC(c2nnc(Cn3cccn3)n2C2CC2)CC1 | -10.5 |
| CCOC(=O)CC(C)NC(=O)c1cn(Cc2ccccc2F)nn1 (configuration not stated) | -1.02 |
| Cn1cc(C(=O)N2CC[C@@]3(O)CCN(C4CCCCC4)C[C@H]3C2)cn1 | -2.94 |
| CC(C)c1noc(C(C)Nc2nccc(CCC(F)(F)F)n2)n1 (configuration not stated) | -10.8 |
| Cc1n[nH]c(C)c1CN1CCC(c2cc(C(C)C)n[nH]2)CC1 | 1.2 |
| Cc1nn(C)c2nc(N(C)CC3CCN(CC(C)C)C3)sc12 (configuration not stated) | 1.29 |

| Structure (SMILES) | cytotoxicity at 70.5 h [%] |
| --- | --- |
| Cn1cc(-c2cc(C(=O)N3CCOCC3)c3ccc(F)cc3n2)cn1 | 24.6 |
| CN(C)CCN(C)c1nc(CCc2ccccc2)nc2c1cnn2C | -1.09 |
| COc1cc(Cl)cc(C(=O)N2CCC3(CC2)CNC(=O)C3)c1 | -15.2 |
| COc1ccc(C)cc1C(C(=O)O)N1CCN(Cc2ccccn2)CC1 (configuration not stated) | 3.54 |
| Cc1nc(S(=O)(=O)N2CCc3[nH]nc(CCC(C)C)c3C2)cn1C | -6.22 |
| CCc1ccccc1OC1CN(C(=O)CN(C)Cc2ccncc2)C1 | -8.04 |
| O=C1CC2(CCN(Cc3ccoc3)CC2)CN1Cc1cc(F)cc(F)c1 | -6.12 |
| COCC[C@]1(O)CCN(C(=O)c2cnn(C)c2)C[C@H]1C | -0.906 |
| C[C@H](c1ccc(F)cc1)n1c(C2CCC2)n[nH]c1=O | -12.6 |
| Cc1cc(CN2CCCC2)cc(Oc2ccc3c(c2)CC(CN)O3)c1 (configuration not stated) | -11.7 |
| Cc1cnccc1-n1nc(C(C)C)nc1CS(C)(=O)=O | -9.46 |
| COc1nccc(N2CC[C@@H](N3CCCCCC3)[C@H](O)C2)c1C#N | -11.1 |
| CC(C)CCn1cc(C(C(=O)O)N2CCC(N3CCSCC3)CC2)cn1 (configuration not stated) | 3.77 |
| CCc1cc(N(C)Cc2c(C)nn(C)c2C)n2nccc2n1 | -2.89 |
| Cc1cc(C)c(C(=O)N2CCn3nc(C(=O)NCCN(C)C)cc3C2)[nH]1 | -3.17 |
| CCCc1nnc(N2CC[C@@](O)(C3CCOCC3)[C@H](C)C2)s1 | 3.18 |
| CC(c1ccon1)N(C)C(=O)C1CCN(CC(N)=O)CC1 (configuration not stated) | 18 |
| Cc1nc(CN)cc(NCc2ccccc2-n2cncn2)n1 | 25 |
| O=C1O[C@@H]2CN(c3ncccn3)C[C@@H]2N1CCCc1ccc(F)cc1 | -7.46 |
| Cc1ccc(C)c(OCCN(C)C(=O)C2CCCN2C(N)=O)c1C (configuration not stated) | -2.41 |
| CC(=O)N1CCc2c(nc(N(C)C)nc2NCCc2cccs2)C1 | -5.76 |
| CC(C)NC(=O)CN1CCN(CC2CCOc3ccccc3C2)CC1 (configuration not stated) | -7.34 |
| CN1CC(c2ccccc2)CC12CCN(C(=O)c1ccc(Cl)cn1)CC2 (configuration not stated) | 19.6 |

| Structure (SMILES) | cytotoxicity at 70.5 h [%] |
| --- | --- |
| COc1ccc2cc(-c3n[nH]cc3CN3CCSCC3)ccc2c1 | 0.45 |
| Cc1cc(C(=O)N(C)CCCn2cccn2)nc(N)n1 | -5.11 |
| COc1ccccc1N1CCN(C(=O)Cn2nccc2C)CC1(C)C | -3.69 |
| Cn1cc(CN2CC[C@@H]3[C@@H](CCC(=O)N3CC3CCNCC3)C2)cn1 | 1.94 |
| COC(=O)c1ccc(N2CCN(C(=O)c3ccc(=O)n(C)c3)CC2)cc1 | -5.8 |
| O=C(O)CC1COCCN1CCCc1ccccc1 (configuration not stated) | -11.2 |
| CSc1ccccc1C(=O)NCc1cc2n(n1)CCCN(CC(C)C)C2 | 22.5 |
| Cc1nc2sccn2c1C(=O)N1CCc2[nH]cnc2C1 | 10.2 |
| CCn1ncnc1C(C)NC(=O)C1CCN(Cc2ccco2)CC1 (configuration not stated) | -0.537 |
| O=C1CCCN1CCC1CCN(C2CCC3(CCNCC3)CC2)CC1 | -6.34 |
| CCC[C@H]1CN(c2nc(CO)cs2)C[C@@H]1NC(=O)C1(COC)CC1 | 4.28 |
| CC(C)c1noc(CN(C)C(=O)c2ccccc2-c2nc[nH]n2)n1 | 6.97 |
| CN(Cc1noc2c1CCCC2)C(=O)Cn1cnc2ccccc2c1=O | -9.78 |
| Cc1cc(C)c(C(=O)N2CCC3(CCCNC3)C2)cc1C (configuration not stated) | 25.6 |
| c1cncc(-n2cnnc2CCCN2CCOCC2)c1 | 1.35 |
| CCOCCc1nc(Cc2ccccc2)n[nH]1 | -14.4 |
| CC(C)=CCC1(CO)CCCN(S(=O)(=O)N2CCCC2)C1 (configuration not stated) | -14.7 |
| CC(C)N1CC(NC(=O)c2ccc(Cl)s2)CC1=O (configuration not stated) | -6.6 |
| CCN1CCCC(c2c(-c3ccccc3)ncn2CCc2c[nH]cn2)C1 (configuration not stated) | -11.9 |
| O=S1(=O)CCC(n2nc(COc3ccccc3)nc2-c2cnccn2)C1 (configuration not stated) | -1.94 |

Source: ChEMBL document CHEMBL3507680, “University of Dundee, Gates Library screen for HepG2 cell viability”
